Experimental data taken from patent publication US20250276063A1, “PLACENTA-DERVIED NK CELLS AS A SENOL YTIC FOR THERAPEUTIC AND OTHER USES” (Celularity Inc., priority 2021, published 2025).

Key:
[1] = tested on: CD34+ cells; experiment: NK cell expansion from CD34+ cells cultured with compound, Day 35; format: cell-based, human; details: for supported NK expansion: compound 10 μM during the first 14 days of the culture; for expansion compared to SR1 at Day 35: compound 10 μM, SR1 10 μM positive control
Source text: UCB CD34+ cells were cultivated in presence of cytokines including thrombopoietin, SCF, Flt3 ligand, IL-7, IL-15 and IL-2 for 35 days to produce three-stage NK cells, as described in Example 1. Multi-color flow cytometry was used to determine the phenotypic characteristics of three-stage NK cells.
(§1) For biological testing, the compounds were provided to culture to evaluate their effects on NK cell expansion and differentiation. Specifically, donors of CD34+ cells (StemCell Technology) were thawed and expanded in vitro following NK culture protocol. During the first 14 days of the culture, each CRL compounds was dissolved in DMSO and added to the culture at 10 μM concentration. SR1 (at 10 μM) served as a positive control compound, while DMSO alone without any compound served as a negative control. At the end of the culture on Day 35, cell expansion, natural killer (NK) cell differentiation and cytotoxicity of the cells against K562 tumor cell line were characterized. Due to the large number of the compounds, the testing was performed in two experiments, CRL1-11 and CRL 12-22. The same donors were used for each experiment. Positive and negative controls were also included in both experiments.

[2] = tested on: K562 tumor cells; experiment: Cytotoxicity assay of compound cultured cells against K562 tumor cells; format: cell-based; details: 10:1 effector to target ratio; both donors
Procedure: as §1
Cytotoxicity assay was run using compound cultured cells against K562 tumor cells at 10:1 effector to target ratio (FIG. 5) to evaluate cell functions.

Structure (SMILES) | supported NK expansion [1] | killing activities compared to cells cultured with SR1 [2] | expansion compared to SR1 at Day 35 [1]
CCC(C)Nc1cc(-c2cncc(C#N)c2)nc(NCCc2c[nH]c3ccccc23)n1 (centres unmarked) [CRL7, 5-(2-((2-(1H-indol-3-yl)ethyl)amino)-6-(sec-butylamino)pyrimidin-4-yl)nicotinonitrile] | all the compounds except CRL7 and CRL13 supported PNK-007 expansion and differentiation |  | 
Cc1cncc(-c2nc(NCCc3c[nH]c4ccccc34)c3scc(C(C)C)c3n2)c1 [CRL21, N-(2-(1H-indol-3-yl)ethyl)-7-isopropyl-2-(5-methylpyridin-3-yl)thieno[3,2-d]pyrimidin-4-amine] |  | increased killing activities of the cells | slightly less expansion compared to SR1
Fc1cncc(-c2nc(NCCc3c[nH]c4ccccc34)c3occc3n2)c1 [CRL19, N-(2-(1H-indol-3-yl)ethyl)-2-(5-fluoropyridin-3-yl)furo[3,2-d]pyrimidin-4-amine] | supported cell expansion the best |  | 
Cc1cncc(-c2nc(NCCc3c[nH]c4ccccc34)c3occc3n2)c1 [CRL20, N-(2-(1H-indol-3-yl)ethyl)-2-(5-methylpyridin-3-yl)furo[3,2-d]pyrimidin-4-amine] | supported cell expansion the best |  | 
CC(C)c1csc2c(NCCc3c[nH]c4ccccc34)nc(-c3cncc(F)c3)nc12 [CRL18, N-(2-(1H-indol-3-yl)ethyl)-2-(5-fluoropyridin-3-yl)-7-isopropylthieno[3,2-d]pyrimidin-4-amine] |  | increased killing activities of the cells | slightly less expansion compared to SR1
CC(C)c1csc2c(NCCc3c[nH]c4ccccc34)nc(-c3cncc(C#N)c3)nc12 [CRL17, 5-(4-((2-(1H-indol-3-yl)ethyl)amino)-7-isopropylthieno[3,2-d]pyrimidin-2-yl)nicotinonitrile] |  | increased killing activities of the cells | slightly less expansion compared to SR1
N#Cc1cncc(-c2nc(NCCc3c[nH]c4ccccc34)c3occc3n2)c1 [CRL22, 5-(4-((2-(1H-indol-3-yl)ethyl)amino)furo[3,2-d]pyrimidin-2-yl)nicotinonitrile] | supported cell expansion the best |  | 
CCC(C)Nc1nc(NCCc2c[nH]c3ccccc23)c2ccccc2n1 (centres unmarked) [CRL13, N^4-(2-(H-indol-3-yl)ethyl)-N^2-(sec-butyl)quinazoline-2,4-diamine] | all the compounds except CRL7 and CRL13 supported PNK-007 expansion and differentiation |  | 
